Paper PMC5513037, “Examining the influence of specificity ligands and ATP-competitive ligands on the overall effectiveness of bivalent kinase inhibitors” (Proteome Science, 2017)

Key:
Experiment in all cases: KAM-matrix competition in K562 lysate;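 on 0.001 uM KAM: median log10 fold change of treatment over DMSO control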;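 on 0.01 uM KAM: median log10 fold change of treatment over DMSO control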;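 on 0.1 uM KAM: median log10 fold change of treatment over DMSO control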;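 on 1 uM KAM: median log10 fold change of treatment over DMSO control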;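 on 10 uM KAM: median log10 fold change of treatment over DMSO control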
Type in all cases: binding
ACVR1B = target: T1, ACVR1B (Homo sapiens, UniProt P36896)
T1 construct: endogenous in cells; host or cells: K562
T1 sequence (P36896 24-505): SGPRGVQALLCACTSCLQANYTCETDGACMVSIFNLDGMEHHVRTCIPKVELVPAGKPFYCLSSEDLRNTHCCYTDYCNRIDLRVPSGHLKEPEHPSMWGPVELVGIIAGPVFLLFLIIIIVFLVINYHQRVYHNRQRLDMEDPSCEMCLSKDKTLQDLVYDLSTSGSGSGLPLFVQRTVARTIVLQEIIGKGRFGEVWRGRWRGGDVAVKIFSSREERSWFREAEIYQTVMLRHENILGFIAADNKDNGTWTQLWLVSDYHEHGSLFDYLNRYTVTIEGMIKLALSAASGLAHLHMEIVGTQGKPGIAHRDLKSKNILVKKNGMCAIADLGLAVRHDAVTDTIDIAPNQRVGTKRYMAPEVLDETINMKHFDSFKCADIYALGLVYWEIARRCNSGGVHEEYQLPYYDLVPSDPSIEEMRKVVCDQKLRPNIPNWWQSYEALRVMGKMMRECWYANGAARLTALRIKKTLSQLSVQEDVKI
Description: (§1) Supplement 12953_2017_125_MOESM1_ESM.zip/MS_Supp Info.xlsx, sheet "KAM" | column: 10 uM KAM; 1 uM KAM; 0.1 uM KAM; 0.01 uM KAM; 0.001 uM KAM; RB50

FLT1 = target: T2, FLT1 (Homo sapiens, UniProt P17948);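 on 0.001 uM KAM: median log10 fold change of treatment over DMSO control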;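 on 0.01 uM KAM: median log10 fold change of treatment over DMSO control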;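 on 0.1 uM KAM: median log10 fold change of treatment over DMSO control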;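 on 1 uM KAM: median log10 fold change of treatment over DMSO control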;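 on 10 uM KAM: median log10 fold change of treatment over DMSO control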
T2 construct: endogenous in cells; host or cells: K562
Description: as §1

LATS1 = target: T3, LATS1 (Homo sapiens, UniProt O95835)
T3 construct: endogenous in cells; host or cells: K562
T3 sequence (O95835 1-1130): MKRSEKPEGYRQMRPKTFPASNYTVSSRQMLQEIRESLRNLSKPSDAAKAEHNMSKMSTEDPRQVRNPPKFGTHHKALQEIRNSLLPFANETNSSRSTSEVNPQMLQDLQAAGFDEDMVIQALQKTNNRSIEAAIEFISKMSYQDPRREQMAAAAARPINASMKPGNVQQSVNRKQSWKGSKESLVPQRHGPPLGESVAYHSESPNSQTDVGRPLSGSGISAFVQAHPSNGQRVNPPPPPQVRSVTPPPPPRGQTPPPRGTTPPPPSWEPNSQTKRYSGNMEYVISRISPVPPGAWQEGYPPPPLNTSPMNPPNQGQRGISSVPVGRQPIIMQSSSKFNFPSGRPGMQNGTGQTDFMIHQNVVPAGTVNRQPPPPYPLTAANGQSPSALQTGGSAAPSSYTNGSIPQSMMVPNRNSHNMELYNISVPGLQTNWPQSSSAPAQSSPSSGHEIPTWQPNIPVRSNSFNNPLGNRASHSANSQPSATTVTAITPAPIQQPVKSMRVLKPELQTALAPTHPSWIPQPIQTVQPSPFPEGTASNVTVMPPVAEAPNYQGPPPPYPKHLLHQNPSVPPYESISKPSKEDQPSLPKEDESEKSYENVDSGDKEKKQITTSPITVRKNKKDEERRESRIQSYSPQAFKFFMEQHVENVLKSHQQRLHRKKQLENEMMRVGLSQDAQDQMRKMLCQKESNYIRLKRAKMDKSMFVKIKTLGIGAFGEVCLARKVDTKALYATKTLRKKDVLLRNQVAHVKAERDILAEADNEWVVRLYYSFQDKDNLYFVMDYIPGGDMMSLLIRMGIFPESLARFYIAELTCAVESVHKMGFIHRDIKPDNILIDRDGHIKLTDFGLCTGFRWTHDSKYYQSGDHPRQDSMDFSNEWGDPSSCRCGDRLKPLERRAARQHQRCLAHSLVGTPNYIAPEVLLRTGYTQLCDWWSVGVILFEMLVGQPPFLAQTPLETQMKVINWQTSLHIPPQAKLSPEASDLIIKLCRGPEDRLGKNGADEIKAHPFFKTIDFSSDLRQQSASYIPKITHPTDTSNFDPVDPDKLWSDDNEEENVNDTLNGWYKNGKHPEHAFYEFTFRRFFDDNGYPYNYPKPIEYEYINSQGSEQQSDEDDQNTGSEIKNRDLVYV
Description: as §1

LRRK2 = target: T4, LRRK2 (Homo sapiens, UniProt Q5S007);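 on 0.001 uM KAM: median log10 fold change of treatment over DMSO control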;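 on 0.01 uM KAM: median log10 fold change of treatment over DMSO control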;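 on 0.1 uM KAM: median log10 fold change of treatment over DMSO control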;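 on 1 uM KAM: median log10 fold change of treatment over DMSO control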;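 on 10 uM KAM: median log10 fold change of treatment over DMSO control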
T4 construct: endogenous in cells; host or cells: K562
Description: as §1

MST1R = target: T5, MST1R (Homo sapiens, UniProt Q04912);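 on 0.001 uM KAM: median log10 fold change of treatment over DMSO control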;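 on 0.01 uM KAM: median log10 fold change of treatment over DMSO control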;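 on 0.1 uM KAM: median log10 fold change of treatment over DMSO control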;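 on 1 uM KAM: median log10 fold change of treatment over DMSO control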;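 on 10 uM KAM: median log10 fold change of treatment over DMSO control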
T5 construct: endogenous in cells; host or cells: K562
Description: as §1

NTRK1 = target: T6, NTRK1 (Homo sapiens, UniProt P04629)
T6 construct: endogenous in cells; host or cells: K562
Description: as §1

RPS6KA5 = target: T7, RPS6KA5 (Homo sapiens, UniProt O75582)
T7 construct: endogenous in cells; host or cells: K562
Description: as §1

STK24 = target: T8, STK24 (Homo sapiens, UniProt Q9Y6E0);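 on 0.001 uM KAM: median log10 fold change of treatment over DMSO control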;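 on 0.01 uM KAM: median log10 fold change of treatment over DMSO control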;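 on 0.1 uM KAM: median log10 fold change of treatment over DMSO control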;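 on 1 uM KAM: median log10 fold change of treatment over DMSO control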;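 on 10 uM KAM: median log10 fold change of treatment over DMSO control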
T8 construct: endogenous in cells; host or cells: K562
Description: as §1

STK38 = target: T9, STK38 (Homo sapiens, UniProt Q15208)
T9 construct: endogenous in cells; host or cells: K562
Description: as §1

[1] = read-out: RB50 (the source's name)
[2] = KAM 0.001-10 uM, read-out: RB50 (the source's name)

T5 sequence (Q04912 25-1400): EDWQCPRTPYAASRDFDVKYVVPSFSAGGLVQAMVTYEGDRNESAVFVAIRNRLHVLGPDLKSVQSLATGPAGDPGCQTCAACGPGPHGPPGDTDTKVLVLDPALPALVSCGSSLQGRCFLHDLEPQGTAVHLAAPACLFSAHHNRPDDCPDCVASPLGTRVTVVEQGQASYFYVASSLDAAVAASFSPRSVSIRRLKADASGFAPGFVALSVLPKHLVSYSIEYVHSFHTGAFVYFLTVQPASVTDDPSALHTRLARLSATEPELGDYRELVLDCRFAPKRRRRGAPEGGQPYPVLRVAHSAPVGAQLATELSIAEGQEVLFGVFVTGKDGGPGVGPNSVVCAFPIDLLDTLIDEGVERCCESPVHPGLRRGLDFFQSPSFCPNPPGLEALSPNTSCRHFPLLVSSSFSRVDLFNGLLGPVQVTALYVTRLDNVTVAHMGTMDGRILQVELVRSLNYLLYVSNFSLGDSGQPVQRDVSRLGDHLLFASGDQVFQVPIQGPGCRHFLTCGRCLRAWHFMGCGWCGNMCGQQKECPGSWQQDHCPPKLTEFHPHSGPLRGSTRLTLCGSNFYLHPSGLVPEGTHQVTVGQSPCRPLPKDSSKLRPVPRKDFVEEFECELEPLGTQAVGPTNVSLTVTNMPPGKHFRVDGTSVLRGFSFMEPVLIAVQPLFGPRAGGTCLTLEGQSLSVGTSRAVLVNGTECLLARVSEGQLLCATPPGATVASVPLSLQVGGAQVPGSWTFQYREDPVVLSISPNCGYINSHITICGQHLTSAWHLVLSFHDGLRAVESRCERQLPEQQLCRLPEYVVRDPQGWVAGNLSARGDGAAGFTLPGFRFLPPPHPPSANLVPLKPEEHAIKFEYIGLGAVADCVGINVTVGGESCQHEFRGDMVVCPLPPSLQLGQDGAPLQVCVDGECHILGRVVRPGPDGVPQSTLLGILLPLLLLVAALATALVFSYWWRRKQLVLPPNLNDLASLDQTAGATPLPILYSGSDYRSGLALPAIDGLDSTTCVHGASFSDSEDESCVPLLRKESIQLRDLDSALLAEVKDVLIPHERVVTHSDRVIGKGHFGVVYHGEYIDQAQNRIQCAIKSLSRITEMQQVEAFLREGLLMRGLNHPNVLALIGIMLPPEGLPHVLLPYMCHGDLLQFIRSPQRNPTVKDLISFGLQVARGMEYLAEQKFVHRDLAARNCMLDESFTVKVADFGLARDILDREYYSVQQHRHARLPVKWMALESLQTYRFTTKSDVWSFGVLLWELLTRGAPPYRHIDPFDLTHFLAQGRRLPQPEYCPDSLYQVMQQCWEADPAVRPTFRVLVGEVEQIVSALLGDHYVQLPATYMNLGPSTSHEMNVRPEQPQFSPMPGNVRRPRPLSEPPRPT
T7 sequence (O75582 whole entry): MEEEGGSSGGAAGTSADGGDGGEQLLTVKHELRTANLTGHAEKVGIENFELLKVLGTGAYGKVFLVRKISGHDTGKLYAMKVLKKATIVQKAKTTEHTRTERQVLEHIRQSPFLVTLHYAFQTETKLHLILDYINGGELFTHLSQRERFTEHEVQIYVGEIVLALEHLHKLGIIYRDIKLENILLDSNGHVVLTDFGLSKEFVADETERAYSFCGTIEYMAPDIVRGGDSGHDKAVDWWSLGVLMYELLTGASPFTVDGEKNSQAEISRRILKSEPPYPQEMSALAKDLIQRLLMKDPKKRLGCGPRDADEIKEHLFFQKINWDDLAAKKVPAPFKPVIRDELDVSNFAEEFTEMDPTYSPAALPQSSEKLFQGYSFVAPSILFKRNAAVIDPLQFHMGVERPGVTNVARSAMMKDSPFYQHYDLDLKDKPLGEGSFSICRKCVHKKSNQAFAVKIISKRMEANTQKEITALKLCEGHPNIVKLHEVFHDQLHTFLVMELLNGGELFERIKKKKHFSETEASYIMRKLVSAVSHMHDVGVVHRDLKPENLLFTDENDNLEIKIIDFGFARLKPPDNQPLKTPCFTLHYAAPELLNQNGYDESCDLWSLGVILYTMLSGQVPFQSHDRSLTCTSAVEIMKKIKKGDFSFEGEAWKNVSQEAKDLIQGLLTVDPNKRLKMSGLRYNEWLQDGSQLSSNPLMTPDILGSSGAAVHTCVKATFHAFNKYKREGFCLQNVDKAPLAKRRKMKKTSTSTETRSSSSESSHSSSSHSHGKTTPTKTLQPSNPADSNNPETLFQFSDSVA
T9 sequence (Q15208 whole entry): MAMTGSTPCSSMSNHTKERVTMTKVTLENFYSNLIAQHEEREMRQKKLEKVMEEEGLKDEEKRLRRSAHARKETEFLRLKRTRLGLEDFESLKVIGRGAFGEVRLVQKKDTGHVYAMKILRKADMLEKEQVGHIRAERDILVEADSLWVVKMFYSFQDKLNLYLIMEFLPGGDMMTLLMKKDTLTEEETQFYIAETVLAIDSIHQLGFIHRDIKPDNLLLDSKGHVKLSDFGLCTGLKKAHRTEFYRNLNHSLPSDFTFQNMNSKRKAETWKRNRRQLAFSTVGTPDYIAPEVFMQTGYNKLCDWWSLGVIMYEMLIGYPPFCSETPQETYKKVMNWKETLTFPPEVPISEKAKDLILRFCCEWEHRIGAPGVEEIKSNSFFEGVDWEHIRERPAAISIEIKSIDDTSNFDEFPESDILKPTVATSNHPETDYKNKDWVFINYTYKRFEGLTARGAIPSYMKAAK
T8 sequence (Q9Y6E0 whole entry): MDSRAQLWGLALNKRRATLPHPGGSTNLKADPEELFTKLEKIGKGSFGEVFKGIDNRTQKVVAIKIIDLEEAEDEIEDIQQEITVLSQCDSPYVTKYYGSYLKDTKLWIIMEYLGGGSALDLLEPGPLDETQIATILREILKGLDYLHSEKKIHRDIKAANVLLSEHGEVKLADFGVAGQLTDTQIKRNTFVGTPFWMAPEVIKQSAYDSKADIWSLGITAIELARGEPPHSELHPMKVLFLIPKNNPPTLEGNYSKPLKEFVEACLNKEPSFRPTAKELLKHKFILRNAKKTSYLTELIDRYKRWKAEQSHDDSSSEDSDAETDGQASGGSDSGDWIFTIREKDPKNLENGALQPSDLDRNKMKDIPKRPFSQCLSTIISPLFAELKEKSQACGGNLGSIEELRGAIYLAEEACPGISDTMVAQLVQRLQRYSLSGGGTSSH
T6 sequence (P04629 33-796): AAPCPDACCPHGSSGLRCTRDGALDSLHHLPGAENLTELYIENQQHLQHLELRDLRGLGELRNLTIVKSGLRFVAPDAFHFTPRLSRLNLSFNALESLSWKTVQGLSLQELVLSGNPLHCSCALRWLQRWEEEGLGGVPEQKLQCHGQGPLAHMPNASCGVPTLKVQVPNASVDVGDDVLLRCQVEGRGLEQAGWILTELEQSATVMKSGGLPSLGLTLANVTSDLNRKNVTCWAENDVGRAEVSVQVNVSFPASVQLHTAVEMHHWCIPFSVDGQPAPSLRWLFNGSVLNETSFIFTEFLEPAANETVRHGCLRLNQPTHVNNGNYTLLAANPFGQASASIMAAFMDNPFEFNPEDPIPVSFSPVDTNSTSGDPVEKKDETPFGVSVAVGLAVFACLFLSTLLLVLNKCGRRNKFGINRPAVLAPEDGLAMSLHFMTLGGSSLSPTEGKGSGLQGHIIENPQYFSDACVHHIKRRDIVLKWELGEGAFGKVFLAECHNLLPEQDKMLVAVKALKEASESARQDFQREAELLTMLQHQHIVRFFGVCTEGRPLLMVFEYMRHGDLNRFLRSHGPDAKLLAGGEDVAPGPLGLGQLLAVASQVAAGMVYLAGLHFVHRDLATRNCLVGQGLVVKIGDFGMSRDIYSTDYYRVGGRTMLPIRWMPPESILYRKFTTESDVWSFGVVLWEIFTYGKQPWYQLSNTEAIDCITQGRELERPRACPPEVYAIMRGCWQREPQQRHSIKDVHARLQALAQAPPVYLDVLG

N#CCc1ccc(Nc2nc(NCCCN)cc(Nc3cc(C4CC4)[nH]n3)n2)cc1 [KAM]
median Log10 fold change (ACVR1B; 0.001 uM KAM): -0.01715 | median Log10 fold change (ACVR1B; 0.01 uM KAM): -0.04575 | median Log10 fold change (ACVR1B; 0.1 uM KAM): -0.2439 | median Log10 fold change (ACVR1B; 1 uM KAM): -0.5931 | median Log10 fold change (ACVR1B; 10 uM KAM): -0.7717 | IC50 (ACVR1B; [1]): 0.169 µM | IC50 (FLT1; [2]): > 10 µM | 0.001 uM KAM (FLT1; relative to 0 uM KAM = 0): -0.03836 | 0.01 uM KAM (FLT1; relative to 0 uM KAM = 0): 0.0203 | 0.1 uM KAM (FLT1; relative to 0 uM KAM = 0): -0.001012 | 1 uM KAM (FLT1; relative to 0 uM KAM = 0): -0.1879 | 10 uM KAM (FLT1; relative to 0 uM KAM = 0): -0.2168 | median Log10 fold change (LATS1; 0.001 uM KAM): -0.01464 | median Log10 fold change (LATS1; 0.01 uM KAM): -0.02487 | median Log10 fold change (LATS1; 0.1 uM KAM): -0.2673 | median Log10 fold change (LATS1; 1 uM KAM): -0.4734 | median Log10 fold change (LATS1; 10 uM KAM): -0.4675 | IC50 (LATS1; [1]): 0.206 µM | IC50 (LRRK2; [2]): > 10 µM | 0.001 uM KAM (LRRK2; relative to 0 uM KAM = 0): -0.05098 | 0.01 uM KAM (LRRK2; relative to 0 uM KAM = 0): -0.01752 | 0.1 uM KAM (LRRK2; relative to 0 uM KAM = 0): 0.02155 | 1 uM KAM (LRRK2; relative to 0 uM KAM = 0): 0.06199 | 10 uM KAM (LRRK2; relative to 0 uM KAM = 0): -0.09009 | IC50 (MST1R; [2]): > 10 µM | 0.001 uM KAM (MST1R; relative to 0 uM KAM = 0): -0.1284 | 0.01 uM KAM (MST1R; relative to 0 uM KAM = 0): -0.04073 | 0.1 uM KAM (MST1R; relative to 0 uM KAM = 0): -0.1983 | 1 uM KAM (MST1R; relative to 0 uM KAM = 0): -0.07265 | 10 uM KAM (MST1R; relative to 0 uM KAM = 0): -0.08067 | median Log10 fold change (NTRK1; 0.001 uM KAM): -0.002125 | median Log10 fold change (NTRK1; 0.01 uM KAM): -0.003481 | median Log10 fold change (NTRK1; 0.1 uM KAM): -0.123 | median Log10 fold change (NTRK1; 1 uM KAM): -0.3463 | median Log10 fold change (NTRK1; 10 uM KAM): -0.5086 | IC50 (NTRK1; [1]): 0.869 µM | median Log10 fold change (RPS6KA5; 0.001 uM KAM): 0.02456 | median Log10 fold change (RPS6KA5; 0.01 uM KAM): -0.007608 | median Log10 fold change (RPS6KA5; 0.1 uM KAM): -0.1303 | median Log10 fold change (RPS6KA5; 1 uM KAM): -0.3238 | median Log10 fold change (RPS6KA5; 10 uM KAM): -0.3743 | IC50 (RPS6KA5; [1]): 1.19 µM | IC50 (STK24; [2]): > 10 µM | 0.001 uM KAM (STK24; relative to 0 uM KAM = 0): -0.01012 | 0.01 uM KAM (STK24; relative to 0 uM KAM = 0): -0.03939 | 0.1 uM KAM (STK24; relative to 0 uM KAM = 0): -0.06162 | 1 uM KAM (STK24; relative to 0 uM KAM = 0): -0.2602 | 10 uM KAM (STK24; relative to 0 uM KAM = 0): -0.2058 | median Log10 fold change (STK38; 0.001 uM KAM): -0.121 | median Log10 fold change (STK38; 0.01 uM KAM): -0.04373 | median Log10 fold change (STK38; 0.1 uM KAM): -0.1647 | median Log10 fold change (STK38; 1 uM KAM): -0.3238 | median Log10 fold change (STK38; 10 uM KAM): -0.6242 | IC50 (STK38; [1]): 0.752 µM
